# Experimental data taken from patent US7713971B2, “1,2,4-triazine derivatives, preparation and use thereof in human therapy” (Pierre Fabre Medicament, priority 2005, dated 2010).
# Target: T1, human PPARα (Homo sapiens, UniProt Q07869)
# T1 construct: expressed in transfected cells; host or cells: Cos-7 cells (ATCC, CRL-1651)
# T1 sequence (Q07869 239-466 limits assumed): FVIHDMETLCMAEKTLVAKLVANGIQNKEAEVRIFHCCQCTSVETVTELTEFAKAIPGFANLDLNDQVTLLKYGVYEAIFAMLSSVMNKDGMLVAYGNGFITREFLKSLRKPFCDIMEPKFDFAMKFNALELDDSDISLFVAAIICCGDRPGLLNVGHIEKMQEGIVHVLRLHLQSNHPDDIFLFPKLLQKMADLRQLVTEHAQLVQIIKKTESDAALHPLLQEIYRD
# Test: Reporter gene transactivation, hPPAR-GAL4 alpha
# Assay type: cell-based
# Conditions: transfected Cos-7 cells, Gal-4 luciferase reporter, 24 hours treatment
row,SMILES,EC50 [µM]
1,"CCCCCCCN(CCCCOc1cccc(SC(C)(C)C(=O)OCC)c1)c1nn(C)c(=O)n(C)c1=O [Example 54, Ethyl 2-(3-{4-[(2,4-Dimethyl-3,5-dioxo-2,3,4,5-tetrahydro-[1,2,4]triazin-6-yl)-heptyl-amino]-butoxy}-phenylsulfanyl)-2-methyl-propionate]",> 10
2,"CCCCCCCn1c(=O)c(OCc2ccc(OC(C)(C)C(=O)OCC)cc2)nn(CCCC(F)(F)F)c1=O [Example 23, Ethyl 2-{4-[4-heptyl-3,5-dioxo-2-(4,4,4-trifluoro-butyl)-2,3,4,5-tetrahydro-[1,2,4]triazin-6-yloxymethyl]-phenoxy}-2-methyl-propionate]",1
3,"CCOC(=O)C(C)(C)Oc1ccc(CCCCOc2nn(CCCC(F)(F)F)c(=O)n(C)c2=O)cc1 [Example 28, Ethyl 2-methyl-2-(4-{4-[4-methyl-3,5-dioxo-2-(4,4,4-trifluoro-butyl)-2,3,4,5-tetrahydro-[1,2,4]triazin-6-yloxy]-butyl}-phenoxy)-propionate]",~10
4,"CCCCCCCn1c(=O)c(N(CCc2ccccc2)CCc2ccc(OC(C)(C)C(=O)OCC)cc2)nn(C)c1=O [Example 116, Ethyl 2-(4-{2-[(4-heptyl-2-methyl-3,5-dioxo-2,3,4,5-tetrahydro-[1,2,4]triazin-6-yl)-phenethyl-amino]-ethyl}-phenoxy)-2-methyl-propionate]",~10
5,"CCOC(=O)C(C)(C)Oc1ccc(OCCNc2nn(CCCC3CCCCC3)c(=O)n(CCCC3CCCCC3)c2=O)cc1 [Example 43, Ethyl 2-(4-{2-[2,4-bis-(3-cyclohexylpropyl)-3,5-dioxo-2,3,4,5-tetrahydro-[1,2,4]triazin-6-ylamino]-ethoxy}-phenoxy)-2-methyl-propionate]",~3
6,"CCCCn1c(=O)c(OCCc2ccccc2OC(C)(C)C(=O)OCC)nn(C)c1=O [Example 1, Ethyl 2-{2-[2-(4-butyl-2-methyl-3,5-dioxo-2,3,4,5-tetrahydro-[1,2,4]triazin-6-yloxy)-ethyl]-phenoxy}-2-methyl-propionate]",3 to 10
7,"CCOC(=O)C(C)(C)Oc1ccc(CCN(CCc2ccccc2)c2nn(C)c(=O)n(C)c2=O)cc1 [Example 114, Ethyl 2-(4-{2-[(2,4-dimethyl-3,5-dioxo-2,3,4,5-tetrahydro-[1,2,4]triazin-6-yl)-phenethyl-amino]-ethyl}-phenoxy)-2-methyl-propionate]",~10
8,"CCCCCCCn1nc(NCCc2ccc(OC(C)(C)C(=O)OCC)cc2)c(=O)n(CCCCCCC)c1=O [Example 108, Ethyl 2-{4-[2-(2,4-diheptyl-3,5-dioxo-2,3,4,5-tetrahydro-[1,2,4]triazin-6-ylamino)-ethyl]-phenoxy}-2-methyl-propionate]",> 10
9,"CCOC(=O)C(C)(C)Oc1cccc(CCNc2nn(C)c(=O)n(CCCC(F)(F)F)c2=O)c1 [Example 58, Ethyl 2-methyl-2-(3-{2-[2-methyl-3,5-dioxo-4-(4,4,4-trifluoro-butyl)-2,3,4,5-tetrahydro-[1,2,4]triazin-6-ylamino]-ethyl}-phenoxy)-propionate]",> 10
10,"Cn1nc(NCCCCc2cccc(OC(C)(C)C(=O)OC(C)(C)C)c2)c(=O)n(CCCC(F)(F)F)c1=O [Example 78, Tert-butyl 2-methyl-2-(3-{4-[2-methyl-3,5-dioxo-4-(4,4,4-trifluoro-butyl)-2,3,4,5-tetrahydro-[1,2,4]triazin-6-ylamino]-butyl}-phenoxy)-propionate]",> 10
11,"CCCCCCCn1nc(NCCCCc2cccc(SC(C)(C)C(=O)OCC)c2)c(=O)n(CCCCCCC)c1=O [Example 98, Ethyl 2-{3-[4-(2,4-diheptyl-3,5-dioxo-2,3,4,5-tetrahydro-[1,2,4]triazin-6-ylamino)-butyl]-phenylsulfanyl}-2-methyl-propionate]",> 10
12,"CCCCCCCn1c(=O)c(N(CCCc2ccccc2)CCc2ccc(OC(C)(C)C(=O)OCC)cc2)nn(C)c1=O [Example 117, Ethyl 2-(4-{2-[(4-heptyl-2-methyl-3,5-dioxo-2,3,4,5-tetrahydro-[1,2,4]triazin-6-yl)-(3-phenyl-propyl)-amino]-ethyl}-phenoxy)-2-methyl-propionate]",~10
13,"CCOC(=O)C(C)(C)Oc1cccc(CCOc2nn(C)c(=O)n(CCCC(F)(F)F)c2=O)c1 [Example 3, Ethyl 2-methyl-2-(3-{2-[2-methyl-3,5-dioxo-4-(4,4,4-trifluoro-butyl)-2,3,4,5-tetrahydro-[1,2,4]triazin-6-yloxy]-ethyl}-phenoxy)-propionate]",~3
14,"CCOC(=O)C(C)(C)Oc1ccc(CCOc2nn(CCCC(F)(F)F)c(=O)n(C)c2=O)cc1 [Example 24, Ethyl 2-methyl-2-(4-{2-[4-methyl-3,5-dioxo-2-(4,4,4-trifluoro-butyl)-2,3,4,5-tetrahydro-[1,2,4]triazin-6-yloxy]-ethyl}-phenoxy)-propionate]",> 10
15,"CCOC(=O)C(C)(C)Sc1cccc(CCCCNc2nn(CCCC(F)(F)F)c(=O)n(C)c2=O)c1 [Example 93, Ethyl 2-methyl-2-(3-{4-[4-methyl-3,5-dioxo-2-(4,4,4-trifluoro-butyl)-2,3,4,5-tetrahydro-[1,2,4]triazin-6-ylamino]-butyl}-phenylsulfanyl)-propionate]",> 10
16,"CCCCCCCn1nc(OCCCc2cccc(SC(C)(C)C(=O)OCC)c2)c(=O)n(C)c1=O [Example 32, Ethyl 2-{3-[3-(2-heptyl-4-methyl-3,5-dioxo-2,3,4,5-tetrahydro-[1,2,4]triazin-6-yloxy)-propyl]-phenylsulfanyl}-2-methyl-propionate]",1 to 3
17,"CCOC(=O)C(C)(C)Oc1ccc(CCNc2nn(CCCC(F)(F)F)c(=O)n(C)c2=O)cc1 [Example 102, Ethyl 2-methyl-2-(4-{2-[4-methyl-3,5-dioxo-2-(4,4,4-trifluoro-butyl)-2,3,4,5-tetrahydro-[1,2,4]triazin-6-ylamino]-ethyl}-phenoxy)-propionate]",> 10
18,"CCCCCCCn1nc(NCCCCc2cccc(OC(C)(C)C(=O)OC(C)(C)C)c2)c(=O)n(CCCC(F)(F)F)c1=O [Example 83, Tert-butyl 2-(3-{4-[2-heptyl-3,5-dioxo-4-(4,4,4-trifluoro-butyl)-2,3,4,5-tetrahydro-[1,2,4]triazin-6-ylamino]-butyl}-phenoxy)-2-methyl-propionate]",> 10
19,"CCOC(=O)C(C)(C)Oc1cccc(CCCOc2nn(C)c(=O)n(CCCC(F)(F)F)c2=O)c1 [Example 6, Ethyl 2-methyl-2-(3-{3-[2-methyl-3,5-dioxo-4-(4,4,4-trifluoro-butyl)-2,3,4,5-tetrahydro-[1,2,4]triazin-6-yloxy]-propyl}-phenoxy)-propionate]",~0.3
20,"CCOC(=O)C(C)(C)Oc1cccc(CCCNc2nn(CCCC(F)(F)F)c(=O)n(Cc3ccccc3)c2=O)c1 [Example 71, Ethyl 2-(3-{3-[4-benzyl-3,5-dioxo-2-(4,4,4-trifluoro-butyl)-2,3,4,5-tetrahydro-[1,2,4]triazin-6-ylamino]-propyl}-phenoxy)-2-methyl-propionate]",~1
21,"CCCCCCCn1c(=O)c(NCCc2cccc(SC(C)(C)C(=O)OCC)c2)nn(C)c1=O [Example 61, Ethyl 2-{3-[2-(4-heptyl-2-methyl-3,5-dioxo-2,3,4,5-tetrahydro-[1,2,4]triazin-6-ylamino)-ethyl]-phenylsulfanyl}-2-methyl-propionate]",~3
